# Measurements reported in the supplement of paper PMC10307832.
# Experiments:
# Assay in all cases: relative viability (nuclei count vs DMSO), 5 days (fraction); higher = more cells survive
# Linsitinib + Luminespib = compound: C[C@]1(O)C[C@@H](c2nc(-c3ccc4ccc(-c5ccccc5)nc4c3)c3c(N)nccn32)C1 [Linsitinib] + CCNC(=O)c1noc(-c2cc(C(C)C)c(O)cc2O)c1-c1ccc(CN2CCOCC2)cc1 [Luminespib] (partner 0.01 µM)
# How it was run: (§1)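 Lung cancer cell lines in 1536-well plates got either a single drug or a fixed anchor-drug dose together with five library-drug doses (not always all listed) in √10 steps, by pin tool, on the day after seeding. Nuclei were counted after 5 days, and relative viability is the treated-to-vehicle ratio of nuclei counts. Values are medians of duplicate plates.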
# Ispinesib + Alpelisib = compound: Cc1ccc(C(=O)N(CCCN)[C@@H](c2nc3cc(Cl)ccc3c(=O)n2Cc2ccccc2)C(C)C)cc1 [Ispinesib] + Cc1nc(NC(=O)N2CCC[C@H]2C(N)=O)sc1-c1ccnc(C(C)(C)C(F)(F)F)c1 [Alpelisib] (partner 2 µM)
# How it was run: as §1
# Linsitinib + Bortezomib = compound: C[C@]1(O)C[C@@H](c2nc(-c3ccc4ccc(-c5ccccc5)nc4c3)c3c(N)nccn32)C1 [Linsitinib] + CC(C)C[C@H](NC(=O)[C@H](Cc1ccccc1)NC(=O)c1cnccn1)B(O)O [Bortezomib] (partner 0.002 µM)
# How it was run: as §1
# Ispinesib + Tozasertib = compound: Cc1ccc(C(=O)N(CCCN)[C@@H](c2nc3cc(Cl)ccc3c(=O)n2Cc2ccccc2)C(C)C)cc1 [Ispinesib] + Cc1cc(Nc2cc(N3CCN(C)CC3)nc(Sc3ccc(NC(=O)C4CC4)cc3)n2)n[nH]1 [Tozasertib] (partner 0.1 µM)
# How it was run: as §1
Cell Line,relative viability (Linsitinib + Luminespib; first compound 0.01 µM),relative viability (Linsitinib + Luminespib; first compound 0.03162 µM),relative viability (Linsitinib + Luminespib; first compound 0.1 µM),relative viability (Linsitinib + Luminespib; first compound 0.3162 µM),relative viability (Linsitinib + Luminespib; first compound 1 µM),relative viability (Ispinesib + Alpelisib; first compound 0.001 µM),relative viability (Ispinesib + Alpelisib; first compound 0.003162 µM),relative viability (Ispinesib + Alpelisib; first compound 0.01 µM),relative viability (Ispinesib + Alpelisib; first compound 0.03162 µM),relative viability (Ispinesib + Alpelisib; first compound 0.1 µM),relative viability (Linsitinib + Bortezomib; first compound 0.01 µM),relative viability (Linsitinib + Bortezomib; first compound 0.03162 µM),relative viability (Linsitinib + Bortezomib; first compound 0.1 µM),relative viability (Linsitinib + Bortezomib; first compound 0.3162 µM),relative viability (Linsitinib + Bortezomib; first compound 1 µM),relative viability (Ispinesib + Tozasertib; first compound 0.001 µM),relative viability (Ispinesib + Tozasertib; first compound 0.003162 µM),relative viability (Ispinesib + Tozasertib; first compound 0.01 µM),relative viability (Ispinesib + Tozasertib; first compound 0.03162 µM),relative viability (Ispinesib + Tozasertib; first compound 0.1 µM)
NCI-H1437,1.1,1.12,1.22,1.1,1.19,1.11,1.14,0.972,0.893,0.272,0.561,0.507,0.545,0.302,0.38,0.449,0.442,0.434,0.378,0.272
PC-14,0.217,0.112,0.18,0.196,0.103,1.01,1.05,1.05,0.942,0.174,0.792,0.762,1.02,0.923,0.767,0.662,0.669,0.624,0.433,0.0644
LCLC-103H,1.06,0.965,0.918,0.813,0.838,0.986,1.07,1.03,0.833,0.943,1.11,0.951,1.17,1.05,0.892,0.5,0.608,0.584,0.382,0.485
COR-L23,0.678,0.48,0.783,0.555,0.583,0.827,0.948,1.08,0.144,0.16,0.861,1.03,1.08,0.896,1.06,0.26,0.231,0.204,0.178,0.152
H3255,0.87,1,0.869,0.594,0.917,0.677,0.8,0.736,0.492,0.33,0.803,0.796,0.812,0.541,0.627,0.599,0.767,0.717,0.601,0.614
NCI-H2126,0.883,0.841,0.912,0.838,0.522,0.765,0.811,0.901,0.742,0.813,1.13,1.14,1.13,0.687,1.06,0.813,0.913,0.944,0.644,0.449
LU99A,0.272,0.25,0.231,0.241,0.216,0.527,0.572,0.66,0.318,0.208,1.15,1.04,1.19,0.34,0.693,0.261,0.282,0.29,0.262,0.273
HOP-62,0.939,0.964,0.923,,0.694,0.656,0.957,0.908,1.17,0.981,0.857,0.488,1.03,,0.379,0.373,0.47,0.389,0.449,0.406
HCC-15,0.218,0.296,0.271,,0.34,0.92,0.955,1.06,0.83,0.358,1.04,0.938,1.1,0.297,0.785,0.48,0.414,0.505,0.281,0.227
HARA,0.715,0.828,0.945,,0.173,0.865,0.806,0.914,0.674,0.371,1.11,1.08,1.21,0.666,1.15,0.151,0.115,0.332,0.0895,0.107
NCI-H1355,0.761,0.685,0.618,0.616,0.587,0.841,0.866,0.979,0.596,0.859,1.19,1.25,1.18,0.748,0.79,0.566,0.608,0.548,0.503,0.486
NCI-H727,0.323,0.207,0.346,0.268,0.288,,0.565,0.545,0.486,0.404,0.86,0.856,0.948,0.392,0.501,0.598,0.556,0.647,0.621,0.668
NCI-H520,0.21,0.195,0.241,,0.208,1.04,0.98,0.767,0.276,0.243,0.666,0.331,0.754,,0.62,0.419,0.466,0.41,0.499,0.422
NCI-H1650,0.196,0.167,0.235,0.202,0.172,,,,,,0.208,0.202,0.184,0.182,0.223,0.382,0.364,0.397,0.139,0.257
